Article PMC12111648, “New Dimethoxyaryl-Sesquiterpene Derivatives with Cytotoxic Activity Against MCF-7 Breast Cancer Cells: From Synthesis to Topoisomerase I/II Inhibition and Cell Death Mechanism Studies” (International Journal of Molecular Sciences, 2025)
“Also recorded” adds a separate entry of the source.

How the values were obtained:
MCF-7 cells = experiment: Mitochondrial membrane potential (rhodamine 123, flow cytometry); assay type: cell-based, human; details: MCF-7, compounds at respective IC50, 24 h
Protocol: To determine whether the toxic effects of selected sesquiterpenes (10c, 11c, 12c, 13c, and 14c) are due to the production of ROS and subsequent apoptosis, the mitochondrial membrane potential was measured. With this aim, a protocol using rhodamine 123 staining and flow cytometry was established to study the effect of the selected compounds [40]. The accumulation of rhodamine 123 in mitochondria is associated with the maintenance of the electrochemical gradient in mitochondria. Daunorubicin was used as a positive control (C+). The results are presented as the percentage of cells with increased mitochondrial membrane permeability.
Rhodamine 123 (Rho123), a positively charged dye that reacts to voltage changes and enters the mitochondria, was utilized to detect modifications in the mitochondrial membrane potential. The cells were exposed to specific compounds (IC50 values for each compound) for 24 h. Control cells that had not been treated were used as negative control, while cells treated with daunorubicin at a concentration of 1 µM served as the positive control. Following this, the cells were incubated with Rho123 (at a concentration of 1 µM) in darkness for an hour at 37 °C. Afterward, the medium was taken out, and the cells were washed with PBS. The cells were then dissociated using trypsin and collected through centrifugation for 10 min at 1500×g. The supernatant was thrown away, and the cell pellets were resuspended in PBS and analyzed using flow cytometry with the FL1 filter. The results are shown as the percentage of Rho123-stained cells.
Figure 5 The effect of the compound’s treatment on mitochondrial membrane potential. […] The data represent the means ± S.D. of at least three experiments with triplicate samples.

human topoisomerase II = experiment: TOP2 DNA relaxation / plasmid linearization assay; assay type: biochemical; details: 20 μM
Protocol: (§1) The ability to relax DNA conformations is a central function of topoisomerase enzymes. Several studies have associated some proapoptotic compounds with the ability to inhibit topoisomerase enzymes. The ability of the selected compounds to inhibit TOP1 or TOP2 activity was determined. In this experiment, daunorubicin was used as a positive control for TOP1/2 inhibition, as previously reported. […] It is important to note the potential for cardiotoxicity associated with some TOP2 inhibitors, which highlights the relevance of assessing compound 14c’s interaction with TOP2B. […] Future studies should include assays to evaluate the specific activity of 14c against both TOP2A and TOP2B to provide a more comprehensive safety profile, as isoform-selective TOP2 inhibitors may offer a therapeutic advantage by reducing adverse effects.
Topoisomerase II-mediated DNA cleavage was assessed using a plasmid linearization assay adapted from previously described methods. Supercoiled plasmid DNA (200 ng final concentration) was incubated with purified human topoisomerase II (10 U) in the presence or absence of test agents or a positive control. Reactions were carried out in a total volume of 20 μL, composed of 2 μL of 10× topoisomerase II reaction buffer, an appropriate volume of compound or control, and nuclease-free water. ATP (final concentration adjusted from a 20 mM stock) was freshly added to the reaction buffer immediately prior to use. Reactions were initiated by the addition of topoisomerase II and incubated at 37 °C for 30 min. To terminate the reactions, 2 μL of 10% SDS was added directly to the tubes while still in the 37 °C water bath, followed by the addition of 1.5 μL of 250 mM tetrasodium EDTA (pH 8.0) and 2 μL of proteinase K solution (0.8 mg/mL). […]
(§2) Figure 7 The effect of sesquiterpene aryl esters on TOP1- and TOP2-induced DNA relaxation was assessed. (A) The TOP1 inhibition assay evaluated the compounds (10c, 11c, 12c, 13c, and 14c) at a concentration of 20 μM in a DNA relaxation assay. […]

human topoisomerase I = target: T1, human topoisomerase I (Homo sapiens, UniProt P11387); experiment: TOP1 DNA relaxation assay; assay type: biochemical; details: 20 μM
T1 construct: purchased Sigma-Aldrich (St. Louis, MO, USA)
T1 sequence (P11387 1-765): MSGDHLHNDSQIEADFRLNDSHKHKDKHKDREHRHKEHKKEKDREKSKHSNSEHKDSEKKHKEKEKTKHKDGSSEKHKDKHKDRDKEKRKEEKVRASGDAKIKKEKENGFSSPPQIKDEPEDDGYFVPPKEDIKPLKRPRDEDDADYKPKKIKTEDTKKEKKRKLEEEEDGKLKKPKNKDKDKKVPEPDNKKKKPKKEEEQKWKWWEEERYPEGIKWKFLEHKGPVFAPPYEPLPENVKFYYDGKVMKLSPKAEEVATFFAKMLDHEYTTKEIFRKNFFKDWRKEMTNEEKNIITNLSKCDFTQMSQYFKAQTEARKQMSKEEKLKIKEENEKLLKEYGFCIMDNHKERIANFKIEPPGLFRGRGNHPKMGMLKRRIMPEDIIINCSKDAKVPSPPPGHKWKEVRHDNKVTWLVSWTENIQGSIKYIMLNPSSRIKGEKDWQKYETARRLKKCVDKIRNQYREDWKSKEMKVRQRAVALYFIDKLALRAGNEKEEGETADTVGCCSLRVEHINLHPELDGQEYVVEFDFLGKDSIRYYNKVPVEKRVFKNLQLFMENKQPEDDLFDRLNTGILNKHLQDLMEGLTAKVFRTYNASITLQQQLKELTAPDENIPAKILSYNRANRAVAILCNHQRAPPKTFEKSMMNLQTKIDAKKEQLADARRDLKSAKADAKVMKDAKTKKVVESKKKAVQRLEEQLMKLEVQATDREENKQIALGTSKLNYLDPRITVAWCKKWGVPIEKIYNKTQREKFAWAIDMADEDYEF
Protocol: as §1
TOP1 activity was assayed by the relaxation of supercoiled DNA (pEGFP-N1) as the manufacturer’s instructions indicated. Briefly, human recombinant TOP1 and buffer assay were obtained from Sigma-Aldrich (St. Louis, MO, USA). […]
as §2

mitochondrial membrane permeability (MCF-7 cells)	inhibition of TOP1-induced DNA relaxation (human topoisomerase I)	Compound	inhibition of TOP2-induced DNA relaxation (human topoisomerase II)
did not increase	–	COc1ccc(/C=C2\C(C)=CCC3C(C)(C)CCC[C@]23C)cc1OC (stereo partly drawn) [Compound 13c, (4aS)-5-((E)-3,4-Dimethoxybenzylidene)-1,1,4a,6-tetramethyl-1,2,3,4,4a,5,8,8a-octahydronaphthalene]	no inhibition
did not increase	did not show significant inhibition	COc1cc2c(cc1OC)[C@]1(C)CCC3C(C)(C)CCC[C@]3(C)C1=C2 (stereo partly drawn) [Compound 14c, (6aR,11bS)-8,9-Dimethoxy-4,4,6a,11b-tetramethyl-2,3,4,4a,5,6,6a,11b-octahydro-1H-benzo[a]fluorene]	selectively inhibited topoisomerase II; also recorded: modified the TOP2-induced DNA relaxation pattern
